In US10925856B2, “Methods and compositions involving bucindolol for the treatment of atrial fibrillation” (priority 2018, dated 2021):

What was measured:
[1] = target: T1, human β1-adrenergic receptor (Homo sapiens, UniProt P08588, G389R); assay: Estimated β1-AR receptor occupancy from plasma concentration and KD; conditions: 12 weeks trough plasma concentration
T1 construct: from tissue; host or cells: notional myocardial receptor of GENETIC-AF patients; no receptor preparation was assayed

[2] = tested on: advanced HFrEF patients (ADRB1 Arg389Gly / ADRA2C Ins322-325Del genotypes); assay: BEST trial and DNA (pharmacogenetic) substudy: bucindolol vs. placebo; format: in vivo, human
Excerpt: The relationship of the ADRA2C Ins/Del polymorphism to systemic NE levels and clinical outcomes was investigated as part of the BEST trial AR polymorphism substudy.
Variables identified in the GENETIC-AF Statistical Analysis Plan (SAP) that were potential predictors of the primary endpoint were investigated by precision therapeutic phenotyping. Hypothesis-based (e.g., AF duration, AF type, LVEF, NYHA Class, NT-proBNP, norepinephrine) and hypothesis-free (e.g. HF duration, initial study dose) elements were included in the multivariate methodology, which was applied to both obvious and non-obvious data to identify a therapeutic phenotype appropriate for investigating in Phase 3. To examine the relationship between HF duration and bucindolol effectiveness for reducing HF events, we analyzed data from the BEST trial (14) and pharmacogenetic substudy (17) for the endpoint of time to all-cause mortality or first HF hospitalization (ACM/HFH).

[3] = BEST ADRB1 389Gly Carriers n = 482
[4] = BEST ADRB1 Arg389Arg, free of AF at randomization
[5] = BEST ADRB1 Arg389Arg, free of AF at randomization, bucindolol vs placebo
[6] = BEST DNA substudy all genotypes n = 1040

T1 sequence (P08588 whole entry G389R): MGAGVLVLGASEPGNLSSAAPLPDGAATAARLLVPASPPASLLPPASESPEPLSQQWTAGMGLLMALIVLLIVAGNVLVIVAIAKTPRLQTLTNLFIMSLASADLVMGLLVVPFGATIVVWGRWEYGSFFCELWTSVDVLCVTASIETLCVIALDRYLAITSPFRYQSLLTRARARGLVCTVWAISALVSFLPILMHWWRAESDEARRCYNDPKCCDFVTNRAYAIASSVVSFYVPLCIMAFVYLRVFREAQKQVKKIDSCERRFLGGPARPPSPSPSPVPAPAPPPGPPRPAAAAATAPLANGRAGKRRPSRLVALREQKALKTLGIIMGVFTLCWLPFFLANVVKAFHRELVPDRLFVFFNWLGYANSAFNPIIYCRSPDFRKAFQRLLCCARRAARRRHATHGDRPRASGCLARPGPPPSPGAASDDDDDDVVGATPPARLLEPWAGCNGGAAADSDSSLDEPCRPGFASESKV

`CC(C)(Cc1c[nH]c2ccccc12)NCC(O)COc1ccccc1C#N` (stereo not drawn) [bucindolol, 2-(3-(1-(1H-indol-3-yl)-2-methylpropan-2-ylamino)-2-hydroxypropoxy)benzonitrile] gave a β1-AR receptor occupancy ([1]; CYP2D6 EMs) of 85.2%, a β1-AR receptor occupancy ([1]; CYP2D6 IMs) of 94.6% and a β1-AR receptor occupancy ([1]; CYP2D6 PMs) of 99.0%. For the same compound, the “Events/patients (rate), time to AF/AFL/ACM” value (shortened to “Events/patients (rate), time”) [2, 3] was “(26.8%)”, the “Events/patients, time to AF/AFL/ACM” value [2, 3] was 61/228 and the “Hazard Ratio (95% C.I.), time to AF/AFL/ACM” value ([2]; BEST ADRB1 389Gly Carriers, bucindolol vs placebo) was 0.95. For the same compound, the “Events/patients (rate), time” value ([2]; BEST ADRB1 Arg389Arg n = 435) was “(18.5%)”, the “Events/patients, time to AF/AFL/ACM” value ([2]; BEST ADRB1 Arg389Arg n = 435) was 43/232 and the ACM events [2, 4] was 33. For the same compound, the “ACM events/pt (%)” value [2, 4] was 14.0%, the ACM/CVH events [2, 4] was 106 and the “ACM/CVH events/pt (%)” value [2, 4] was 45.1%. The ACM/HFH events [2, 4] was 82, the “ACM/HFH events/pt (%)” value [2, 4] was 34.9% and the CVH events [2, 4] was 88. For the same compound, the “CVH events/pt (%)” value [2, 4] was 37.5%, the CVM events [2, 4] was 25 and the “CVM events/pt (%)” value [2, 4] was 10.6%. The CVM/HFH events [2, 4] was 76, the “CVM/HFH events/pt (%)” value [2, 4] was 32.3% and the HFH events [2, 4] was 65. The “HFH events/pt (%)” value [2, 4] was 27.7%, the “ACM HzR” value [2, 5] was 0.61 and the “ACM/CVH HzR” value [2, 5] was 0.72. For the same compound, the “ACM/HFH HzR” value [2, 5] was 0.69, the “CVH HzR” value [2, 5] was 0.69 and the “CVM HzR” value [2, 5] was 0.54. For the same compound, the “CVM/HFH HzR” value [2, 5] was 0.66, the “HFH HzR” value [2, 5] was 0.70 and the “Hazard Ratio (95% C.I.), time to AF/AFL/ACM” value ([2]; BEST ADRB1 Arg389Arg, bucindolol vs placebo) was 0.49. The “Events/patients (rate), time” value [2, 6] was “(22.6%)”, the “Events/patients, time to AF/AFL/ACM” value [2, 6] was 104/460 and the “Hazard Ratio (95% C.I.), time to AF/AFL/ACM” value ([2]; BEST DNA substudy all genotypes, bucindolol vs placebo) was 0.70. The “Events/patients (rate), time” value ([2]; BEST Entire Cohort n = 2708) was “(33.6%)”, the “Events/patients, time to AF/AFL/ACM” value ([2]; BEST Entire Cohort n = 2708) was 401/1193 and the “Hazard Ratio (95% C.I.), time to AF/AFL/ACM” value ([2]; BEST Entire Cohort, bucindolol vs placebo) was 0.80.
